Structures can show the parent of a compound that is named as a salt.

Chain of human recombinant H-PGDS (O60760 whole entry): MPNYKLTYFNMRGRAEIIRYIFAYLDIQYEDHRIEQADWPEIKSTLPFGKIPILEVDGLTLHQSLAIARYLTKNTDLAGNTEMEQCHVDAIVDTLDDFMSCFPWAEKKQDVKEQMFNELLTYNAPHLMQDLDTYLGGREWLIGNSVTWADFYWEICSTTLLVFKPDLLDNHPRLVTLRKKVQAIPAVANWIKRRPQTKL

This experiment addresses human recombinant H-PGDS (Homo sapiens, UniProt O60760). Nature of the experiment: Fluorescence intensity h-PGDS TBA enzyme assay (PGH2 depletion, MDA/TBA fluorescence). The experiment is classed as biochemical. To be noted: 1:175,000 human recombinant H-PGDS, 42 second reaction, 3-fold serial dilutions, highest concentration typically 1 μM. The procedure, abridged:
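Recombinant human H-PGDS preincubated with inhibitor 10 min at room temperature in pH 8.0 Tris, MgCl2, IgG, 2.5 mM glutathione, 0.5% DMSO. Reaction with 5.0 μM PGH2 stopped at 42 s with FeCl2/citric acid; MDA–TBA fluorescence (ex 530/em 565 nm) read after 70° C. IC50 by 4-parameter fit, 11 concentrations.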
Broadly, the IC50 is the concentration at which inhibition is half-maximal. Regarding `CC(C)(O)C(=O)N[C@H]1CC[C@H](NC(=O)c2ccc(-c3cccc(F)c3)nc2)CC1` [Example 143, 6-(3-Fluorophenyl)-N-{trans-4-[(2-hydroxy-2-methylpropanoyl)amino]cyclohexyl}nicotinamide], the IC50 is 7.2 nM. The figure for `C[C@H](O)C(=O)N[C@H]1CC[C@H](NC(=O)c2ccc(-c3cccc(F)c3)nc2)CC1` [Example 144, 6-(3-Fluorophenyl)-N-(trans-4-{[(2S)-2-hydroxypropanoyl]amino}cyclohexyl)nicotinamide] is 7.5 nM. The figure for `CN(C)CC(=O)N[C@H]1CC[C@H](NC(=O)c2ccc(-c3cccc(F)c3)nc2)CC1` [Example 145, N-{trans-4-[(N,N-Dimethylglycyl)amino]cyclohexyl}-6-(3-fluorophenyl)nicotinamide] is 11.6 nM; for `NCC(=O)N[C@H]1CC[C@H](NC(=O)c2ccc(-c3cccc(F)c3)nc2)CC1` [Example 146, 6-(3-Fluorophenyl)-N-[trans-4-(glycylamino)cyclohexyl]nicotinamide] it is 21 nM. With `CC(=O)NC(C)[C@H]1CC[C@H](NC(=O)c2ccc(-c3cccc(F)c3)nc2)CC1` (stereo partly drawn) [Example 147, N-[trans-4-(1-Acetamidoethyl]cyclohexyl]-6-(3-fluorophenyl)nicotinamide], the IC50 amounted to 5.7 nM. The figure for `CS(=O)(=O)NC[C@H]1CC[C@H](NC(=O)c2ccc(-c3cccc(F)c3)nc2)CC1` [Example 150, 6-(3-Fluorophenyl)-N-[trans 4(methanesulfonylaminomethyl)cyclohexyl]nicotinamide] is 8.9 nM. The figure for `CC(C)(O)C[C@H]1CC[C@H](NC(=O)c2ccc(-c3cccc(F)c3)nc2)CC1` [Example 152, 6-(3-Fluorophenyl)-N-[4-(trans 2-hydroxy-2-methylpropyl)cyclohexyl]nicotinamide] is 2.2 nM; for `O=C(NC1CCC(O)(CN2CCCCC2)CC1)c1ccc(-c2cccc(F)c2)nc1` (stereo not drawn) [Example 153, 6-(3-Fluorophenyl)-N-(4-hydroxy-piperidin-1-ylmethylcyclohexyl)nicotinamide] it is 13.2 nM.

As to `NCCC(O)C1CCC(NC(=O)c2ccc(-c3cccc(F)c3)nc2)CC1` (stereo not drawn) [Example 154, N-[4-(3-Amino-1-hydroxypropyl)cyclohexyl]6-(3-fluorophenyl)nicotinamide hydrochloride], the IC50 stood at 40.3 nM. With `N[C@H]1CC[C@@H](NC(=O)c2ccc(-c3cccc(F)c3)nc2)CC1` [Example 155, N-(cis-4-Aminocyclohexyl)-6-(3-fluorophenyl)nicotinamide] the figure was 97.8 nM. Regarding `O=C(N[C@H]1CC[C@@H](C(=O)N2CCN(CCO)CC2)C1)c1ccc(-c2cccc(F)c2)nc1` [Example 156, 6-(3-fluorophenyl)-N-[(1S,3R)-3-{[4-(2-hydroxyethyl)piperazin-1-yl]carbonyl}cyclopentyl]nicotinamide], the IC50 worked out at 11.5 nM.

Consider `CCN(C)C(=O)[C@@H]1CC[C@H](NC(=O)c2ccc(-c3cccc(F)c3)nc2)C1` [Example 157, N-{(1S,3R)-3-[ethyl(methyl)carbamoyl]cyclopentyl}-6-(3-fluorophenyl)nicotinamide], for which the IC50 is 5.8 nM. For the compound `O=C(N[C@H]1CC[C@@H](C(=O)N2CC[C@H](F)C2)C1)c1ccc(-c2cccc(F)c2)nc1` [Example 159, 6-(3-fluorophenyl)-N-[(1S,3R)-3-{[(3S)-3-fluoropyrrolidin-1-yl]carbonyl}cyclopentyl]nicotinamide], the IC50 was found to be 4.9 nM. The figure for `O=C(N[C@H]1CC[C@@H](C(=O)NC2CC2)C1)c1ccc(-c2cccc(F)c2)nc1` [Example 160, N-[(1S,3R)-3-(cyclopropylcarbamoyl)cyclopentyl]-6-(3-fluorophenyl)nicotinamide] is 11.2 nM.

Regarding `O=C(N[C@H]1CC[C@@H](C(=O)N2CC[C@@H](F)C2)C1)c1ccc(-c2cccc(F)c2)nc1` [Example 161, 6-(3-fluorophenyl)-N-[(1S,3R)-3-{[(3R)-3-fluoropyrrolidin-1-yl]carbonyl}cyclopentyl]nicotinamide], the IC50 turned out to be 4.1 nM.

Regarding `CC(C)(O)[C@@H]1CC[C@H](NC(=O)c2ccc(-c3cccc(F)c3)nc2)C1` [Example 162, 6-(3-fluorophenyl)-N-[(1S,3R)-3-(1-hydroxy-1-methylethyl)cyclopentyl]nicotinamide], the IC50 worked out at 22.7 nM. On to `CN(C)C(=O)[C@@H]1CC[C@H](NC(=O)c2ccc(-c3cccc(F)c3)nc2)C1` [Example 163, N-[(1S,3R)-3-(Dimethylcarbamoyl)cyclopentyl]-6-(3-fluorophenyl)nicotinamide], for which the IC50 was 6.1 nM. The figure for `C[C@H](CO)NC(=O)[C@@H]1CC[C@H](NC(=O)c2ccc(-c3cccc(F)c3)nc2)C1` [Example 164, 6-(3-Fluorophenyl)-N-{(1S,3R)-3-[(2-hydroxy-1-methylethyl)carbamoyl]cyclopentyl}nicotinamide] is 16.1 nM. The figure for `CN(C)C(=O)[C@H]1CC[C@@H](NC(=O)c2ccc(-c3cccc(F)c3)nc2)C1` [Example 165, N-[(1R,3S)-3-Dimethylcarbamoyl-cyclopentyl]-6-(3-fluorophenyl)nicotinamide] is 16.9 nM. With `CC(C)(O)[C@H]1CC[C@@H](NC(=O)c2ccc(-c3cccc(F)c3)nc2)C1` [Example 166, 6-(3-Fluorophenyl)-N-[(1R,3S)-3-(1-hydroxy-1-methylethyl)cyclopentyl]nicotinamide] the figure was 35.5 nM; with `CN(C)CCNC(=O)[C@@H]1CC[C@H](NC(=O)c2ccc(-c3cccc(F)c3)nc2)C1` [Example 167, N-[(1S,3R)-3-{[2-(Dimethylamino)ethyl]carbamoyl}cyclopentyl]-6-(3-fluorophenyl)nicotinamide], 28.5 nM. With `O=C(N[C@H]1CC[C@@H](C(=O)N2CCC(CCO)CC2)C1)c1ccc(-c2cccc(F)c2)nc1` [Example 168, 6-(3-Fluorophenyl)-N-[(1S,3R)-3-{(4-(2-hydroxyethyl)piperidin-1-yl]carbonyl}cyclopentyl]nicotinamide], the IC50 amounted to 4.4 nM. The figure for `COCCNC(=O)[C@@H]1CC[C@H](NC(=O)c2ccc(-c3cccc(F)c3)nc2)C1` [Example 169, 6-(3-Fluorophenyl)-N-{(1S,3R)-3-[(2-methoxyethyl)carbamoyl]cyclopentyl}nicotinamide] is 15.1 nM; for `O=C(N[C@H]1CC[C@@H](C(=O)N2CCOCC2)C1)c1ccc(-c2cccc(F)c2)nc1` [Example 170, 6-(3-Fluorophenyl)-N-[(1S,3R)-3-(morpholin-4-ylcarbonyl)cyclopentyl]nicotinamide] it is 4.3 nM.

`CC(C)(O)CNC(=O)[C@@H]1CC[C@H](NC(=O)c2ccc(-c3cccc(F)c3)nc2)C1` [Example 171, 6-(3-Fluorophenyl)-N-{(1S,3R)-3-[(2-hydroxy-2-methylpropyl)carbamoyl]cyclopentyl}nicotinamide]: the IC50 was found to be 6.3 nM. The figure for `CC(C)(CCO)NC(=O)[C@@H]1CC[C@H](NC(=O)c2ccc(-c3cccc(F)c3)nc2)C1` [Example 172, 6-(3-Fluorophenyl)-N-{(1S,3R)-3-[(3-hydroxy-1,1-dimethylpropyl)carbamoyl]cyclopentyl}nicotinamide] is 6.4 nM.

`CN1CCN(C(=O)[C@@H]2CC[C@H](NC(=O)c3ccc(-c4cccc(F)c4)nc3)C2)CC1=O` [Example 173, 6-(3-Fluorophenyl)-N-{(1S,3R)-3-[(4-methyl-3-oxopiperazin-1-yl)carbonyl]cyclopentyl}nicotinamide]: the IC50 came out at 21.6 nM.

These data come from patent US20100173888A1 (Pfizer Inc, priority 2008, published 2010).
